Assay results as given in the NIST ThermoML archive (doi:10.1021/je800930v).
Numbers after ± are expanded uncertainties.

Legend:
[1] = xn = mol fraction of the nth substance listed; conditions: 101 kPa, Liquid
[2] = 101 kPa, Liquid

O=C(O)C1CC1 [cyclopropanecarboxylic acid] + CCO
[1]
Conditions	mass density, 298.15 K [kg/m3]	mass density, 308.15 K [kg/m3]	mass density, 318.15 K [kg/m3]	mass density, 328.15 K [kg/m3]	viscosity, 298.15 K [mPa·s]	viscosity, 308.15 K [mPa·s]	viscosity, 318.15 K [mPa·s]	viscosity, 328.15 K [mPa·s]
x1 = 0.0787	820.26 ± 0.45	811.57 ± 0.46	802.61 ± 0.47	793.34 ± 0.49	1.272 ± 0.016	1.043 ± 0.013	0.865 ± 0.012	0.723 ± 0.011
x1 = 0.161	853.87 ± 0.4	844.96 ± 0.41	835.92 ± 0.42	826.69 ± 0.44	1.469 ± 0.018	1.201 ± 0.015	0.99 ± 0.013	0.825 ± 0.011
x1 = 0.2475	886.51 ± 0.35	877.38 ± 0.36	868.1 ± 0.37	858.68 ± 0.39	1.711 ± 0.02	1.388 ± 0.017	1.136 ± 0.014	0.947 ± 0.013
x1 = 0.3384	917.74 ± 0.3	908.48 ± 0.31	899.1 ± 0.33	889.59 ± 0.34	1.985 ± 0.023	1.596 ± 0.019	1.299 ± 0.016	1.073 ± 0.014
x1 = 0.4341	947.8 ± 0.26	938.44 ± 0.27	928.98 ± 0.28	919.39 ± 0.3	2.279 ± 0.027	1.814 ± 0.022	1.47 ± 0.018	1.208 ± 0.015
x1 = 0.535	976.75 ± 0.22	967.28 ± 0.23	957.74 ± 0.24	948.09 ± 0.26	2.562 ± 0.03	2.029 ± 0.024	1.636 ± 0.02	1.342 ± 0.016
x1 = 0.6415	1004.67 ± 0.2	995.1 ± 0.2	985.47 ± 0.21	975.77 ± 0.22	2.818 ± 0.032	2.225 ± 0.026	1.789 ± 0.021	1.467 ± 0.018
x1 = 0.7542	1031.56 ± 0.23	1021.89 ± 0.22	1012.17 ± 0.21	1002.41 ± 0.2	3.035 ± 0.035	2.391 ± 0.028	1.895 ± 0.022	1.557 ± 0.019
x1 = 0.8734	1057.73 ± 0.27	1047.94 ± 0.26	1038.12 ± 0.24	1028.3 ± 0.23	3.204 ± 0.037	2.532 ± 0.029	2.024 ± 0.024	1.674 ± 0.02
x1 = 1	1082.92 ± 0.31	1072.97 ± 0.3	1063.04 ± 0.28	1053.12 ± 0.26	3.306 ± 0.038	2.603 ± 0.03	2.102 ± 0.025	1.739 ± 0.021

CCCCO [butan-1-ol] + O=C(O)C1CC1
[1], x2 = 0
Conditions	mass density [kg/m3]	viscosity [mPa·s]
298.15 K	805.8 ± 0.46	2.588 ± 0.03
308.15 K	798.08 ± 0.47	1.991 ± 0.023
318.15 K	790.22 ± 0.48	1.555 ± 0.019
328.15 K	782.17 ± 0.5	1.228 ± 0.015
338.15 K	773.88 ± 0.51	0.981 ± 0.013

CCCO [propan-1-ol] + O=C(O)C1CC1
[1], x2 = 0
Conditions	mass density [kg/m3]	viscosity [mPa·s]
298.15 K	799.6 ± 0.47	1.955 ± 0.023
308.15 K	791.49 ± 0.48	1.538 ± 0.019
318.15 K	783.22 ± 0.49	1.224 ± 0.015
328.15 K	774.73 ± 0.51	0.986 ± 0.013
338.15 K	765.98 ± 0.52	0.801 ± 0.011

CCCO [propan-1-ol]
[2]
Conditions	mass density [kg/m3]	viscosity [mPa·s]
298.15 K	799.6 ± 0.47	1.955 ± 0.023
308.15 K	791.49 ± 0.48	1.538 ± 0.019
318.15 K	783.22 ± 0.49	1.224 ± 0.015
328.15 K	774.73 ± 0.51	0.986 ± 0.013
338.15 K	765.98 ± 0.52	0.801 ± 0.011

O=C(O)C1CC1 [cyclopropanecarboxylic acid] + CCCCO
[1]
Conditions	mass density, 298.15 K [kg/m3]	mass density, 308.15 K [kg/m3]	mass density, 318.15 K [kg/m3]	mass density, 328.15 K [kg/m3]	mass density, 338.15 K [kg/m3]	viscosity, 298.15 K [mPa·s]	viscosity, 308.15 K [mPa·s]	viscosity, 318.15 K [mPa·s]	viscosity, 328.15 K [mPa·s]	viscosity, 338.15 K [mPa·s]
x1 = 0.1	831.84 ± 0.42	823.84 ± 0.44	815.72 ± 0.45	807.43 ± 0.46	798.92 ± 0.47	2.672 ± 0.031	2.064 ± 0.024	1.615 ± 0.019	1.289 ± 0.016	1.031 ± 0.013
x1 = 0.2	858.24 ± 0.39	850.01 ± 0.4	841.64 ± 0.41	833.15 ± 0.42	824.46 ± 0.44	2.782 ± 0.032	2.145 ± 0.025	1.689 ± 0.02	1.339 ± 0.016	1.081 ± 0.014
x1 = 0.3	884.97 ± 0.35	876.51 ± 0.36	867.95 ± 0.37	859.26 ± 0.38	850.39 ± 0.4	2.936 ± 0.034	2.26 ± 0.026	1.779 ± 0.021	1.416 ± 0.017	1.145 ± 0.014
x1 = 0.4	912.03 ± 0.31	903.36 ± 0.32	894.6 ± 0.33	885.74 ± 0.35	876.73 ± 0.36	3.091 ± 0.035	2.374 ± 0.028	1.863 ± 0.022	1.488 ± 0.018	1.207 ± 0.015
x1 = 0.5	939.3 ± 0.27	930.44 ± 0.28	921.51 ± 0.29	912.47 ± 0.31	903.33 ± 0.32	3.217 ± 0.037	2.475 ± 0.029	1.944 ± 0.023	1.556 ± 0.019	1.266 ± 0.016
x1 = 0.6	966.97 ± 0.23	957.92 ± 0.24	948.81 ± 0.25	939.61 ± 0.27	930.34 ± 0.28	3.319 ± 0.038	2.558 ± 0.03	2.016 ± 0.024	1.62 ± 0.019	1.324 ± 0.016
x1 = 0.6987	994.72 ± 0.2	985.5 ± 0.21	976.22 ± 0.22	966.86 ± 0.23	957.46 ± 0.24	3.386 ± 0.039	2.616 ± 0.03	2.079 ± 0.024	1.671 ± 0.02	1.37 ± 0.017
x1 = 0.7996	1023.6 ± 0.23	1014.15 ± 0.21	1004.68 ± 0.2	995.17 ± 0.2	985.6 ± 0.21	3.401 ± 0.039	2.634 ± 0.03	2.11 ± 0.025	1.708 ± 0.02	1.41 ± 0.017
x1 = 0.9	1053 ± 0.27	1043.31 ± 0.25	1033.63 ± 0.24	1023.94 ± 0.23	1014.21 ± 0.21	3.362 ± 0.038	2.628 ± 0.03	2.109 ± 0.025	1.723 ± 0.021	1.432 ± 0.017
x1 = 1	1082.92 ± 0.31	1072.97 ± 0.3	1063.04 ± 0.28	1053.12 ± 0.26	1043.2 ± 0.25	3.306 ± 0.038	2.603 ± 0.03	2.102 ± 0.025	1.739 ± 0.021	1.459 ± 0.018

CCCCO [butan-1-ol]
[2]
Conditions	mass density [kg/m3]	viscosity [mPa·s]
298.15 K	805.8 ± 0.46	2.588 ± 0.03
308.15 K	798.08 ± 0.47	1.991 ± 0.023
318.15 K	790.22 ± 0.48	1.555 ± 0.019
328.15 K	782.17 ± 0.5	1.228 ± 0.015
338.15 K	773.88 ± 0.51	0.981 ± 0.013

CCO [ethanol]
[2]
Conditions	mass density [kg/m3]	viscosity [mPa·s]
298.15 K	785.44 ± 0.49	1.097 ± 0.014
308.15 K	776.78 ± 0.5	0.908 ± 0.012
318.15 K	767.94 ± 0.52	0.756 ± 0.011
328.15 K	758.92 ± 0.53	0.634 ± 0.01
